Structures can show the parent of a compound that is named as a salt.
Molecular target: T1, Calcium Sensing Receptor (CaSR) (Homo sapiens, UniProt P41180)
T1 construct: expressed in transfected cells
T1 sequence (P41180 20-1078): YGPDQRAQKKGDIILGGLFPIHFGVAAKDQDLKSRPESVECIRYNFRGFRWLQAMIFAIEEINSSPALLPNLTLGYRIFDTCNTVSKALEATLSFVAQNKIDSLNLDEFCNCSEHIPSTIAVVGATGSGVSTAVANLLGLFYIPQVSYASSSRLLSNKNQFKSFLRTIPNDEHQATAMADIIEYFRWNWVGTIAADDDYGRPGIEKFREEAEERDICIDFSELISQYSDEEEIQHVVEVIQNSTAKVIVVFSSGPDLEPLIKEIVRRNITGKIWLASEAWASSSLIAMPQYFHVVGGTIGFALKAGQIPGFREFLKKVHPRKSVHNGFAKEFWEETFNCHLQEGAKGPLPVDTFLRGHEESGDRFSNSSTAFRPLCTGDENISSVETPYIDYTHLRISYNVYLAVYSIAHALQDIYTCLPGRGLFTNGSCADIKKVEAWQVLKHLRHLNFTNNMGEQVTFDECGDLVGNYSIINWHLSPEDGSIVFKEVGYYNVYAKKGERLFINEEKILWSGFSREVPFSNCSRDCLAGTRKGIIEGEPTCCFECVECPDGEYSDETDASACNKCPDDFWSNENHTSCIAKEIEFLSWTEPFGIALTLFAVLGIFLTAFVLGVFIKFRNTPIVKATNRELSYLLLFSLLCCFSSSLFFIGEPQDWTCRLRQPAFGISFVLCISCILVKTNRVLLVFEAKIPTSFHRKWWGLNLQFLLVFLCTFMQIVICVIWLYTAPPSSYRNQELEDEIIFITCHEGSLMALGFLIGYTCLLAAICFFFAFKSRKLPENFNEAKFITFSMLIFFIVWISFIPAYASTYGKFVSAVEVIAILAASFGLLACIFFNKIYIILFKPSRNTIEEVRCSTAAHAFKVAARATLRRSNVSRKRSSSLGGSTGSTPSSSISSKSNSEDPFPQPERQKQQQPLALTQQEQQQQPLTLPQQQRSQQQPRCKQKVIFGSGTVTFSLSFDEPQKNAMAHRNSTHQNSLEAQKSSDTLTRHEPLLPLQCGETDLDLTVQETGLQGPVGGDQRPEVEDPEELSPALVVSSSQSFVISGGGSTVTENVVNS
Assay: In-vitro assay of calcimimetics through modulation of Calcium Sensing Receptor (intracellular calcium increase, FLIPR)
Format: cell-based
Conditions: stably transfected HEK293 cells expressing hCaSR; Fluo4NW dye; 0.3 mM CaCl2; 8-point assay; read-out: EC50 Range
Description: Certain illustrative compounds within the scope of the invention are screened for CaSR activity according to the procedure given below. The screening of the compounds may also be carried by other methods and procedures known to skilled in the art.
In-vitro assay method of Calcimimetics through modulation of Calcium Sensing Receptor (CaSR):
The ability of the compounds to modulate Calcium sensing receptor is determined by measuring an increase in intracellular calcium [Ca^2+]i. Stably transfected HEK293 cells expressing hCaSR_pTriEx-3 hygro vector are developed. Cells are grown overnight on a 96-well plate to 80% confluency in Ham's F12 containing 20% FBS at 37° C., 5% CO2. Subsequently, cells are washed extensively with 20 mM HEPES buffer containing 126 mM […], 1 mM MgCl2 and 4 mM KCl to remove serum components that might interfere with the assay. Cells are loaded with calcium sensing Fluo4NW dye in HEPES base buffer containing 0.1% BSA and lmg/ml glucose for 30 minutes to measure changes in intracellular calcium. The activities of the compounds are measured in FLIPR using 0.3 mM CaCl2 in 20 mM HEPES base buffer. The effectiveness of the compound to modulate receptor activity is determined by calculating the EC50 responses for that compound in an 8-point assay and plotted using GraphPad Prism 5.
The compounds prepared were tested using the above assay procedure and the results obtained are given below.

Question: Which EC50 does the source give for COc1cc([C@@H](C)NC[C@@H]2Cc3ccccc3C(c3ccc(C)c(C(=O)O)c3)C2)ccc1F (single isomer, unassigned) [Example 16a, hydrochloride] here?
Answer: Its EC50 is under 20 nM.

Question: COc1cc([C@@H](C)NC[C@@H]2Cc3ccccc3C(c3ccc(C)c(C(=O)O)c3C)C2)ccc1F (stereo partly drawn) [Example 17, 3-((3S)-3-((((R)-1-(4-Fluoro-3-methoxyphenyl)ethyl)amino)methyl)-1,2,3,4-tetrahydronaphthalen-1-yl)-2,6-dimethylbenzoic acid hydrochloride] was tested. Which EC50 did it give?
Answer: Its EC50 is under 20 nM.

Question: Cc1ccc(C2C[C@H](CN[C@H](C)c3ccc(F)c4ccccc34)Cc3ccccc32)cc1C(=O)O (single isomer, unassigned) [Example 19b, hydrochloride] was tested. Which EC50 did it give?
Answer: The EC50 was 20 to 50 nM.

Question: With Cc1ccc(N2C[C@@H](CN[C@H](C)c3cccc4ccccc34)Cc3ccccc32)cc1C(=O)O [Example 69a, 2-Methyl-5-(3-((((R)-1-(naphthalen-1-yl)ethyl)amino)methyl)-3,4-dihydroquinolin-1(2H)-yl)benzoic acid hydrochloride] as the compound, how does the EC50 read?
Answer: The EC50 was under 20 nM.

Question: For Cc1ccc(N2CC(CCN[C@H](C)c3cccc4ccccc34)Cc3ccccc32)cc1C(=O)O (single isomer, unassigned) [Example 76b, hydrochloride], which EC50 is on record?
Answer: Its EC50 is 20 to 50 nM.
